In patent US8664409B2, “Process for the preparation of (poly) aminoalkylaminoacetamide derivatives of epipodophyllotoxin useful for their applications in therapeutics as anticancer agent” (Pierre Fabre Medicament, priority 2007, dated 2014):
Structures can show the parent of a compound that is named as a salt.

melting point | Compound
263 °C | COc1cc(C2c3cc4c(cc3[C@@H](NC(=O)CNCCCCNCCCCNCCCCN)[C@H]3COC(=O)C23)OCO4)cc(OC)c1O (some centres unmarked) (as salt: hydrochloride)
197 °C | COc1cc(C2c3cc4c(cc3[C@@H](NC(=O)CNCCCCNCCCN)[C@H]3COC(=O)C23)OCO4)cc(OC)c1O (some centres unmarked) (as salt: hydrochloride)
